{"source": "patent US5202127A", "about": "“Moth-proofing method using trioxane as sole active” (Mitsubishi Gas Chemical Co., Inc., priority 1986, dated 1993)", "key": {"[1]": {"tested_on": "larvae of case making clothes moths", "assay": "killing of case making clothes moth larvae in plugged bottle at 25° C. for 4 hours (Tables 3 and 4)", "type": "in vivo", "settings": "10 larvae, chemicals in the solid state, 2 g, 4 hours (Table 4)", "protocol": "Granular trioxane containing 1 ppm of formic acid and 2 ppm of formaldehyde was dissolved in various organic solvents at a predetermined concentration to prepare organic liquid insect-proofing agents.\nSquare absorbent cotton piece having a side of 3 cm, which was impregnated with 2 g of the organic liquid insect-proofing agent, was placed in the bottom portion of a glass bottle having a volume of 500 ml, and an insect cage of a metal net having a diameter of 3 cm, which contained 10 larvae of case making clothes moths having a body length of about 6 mm and a square wool fabric having a side of 3 cm, was secured the absorbent cotton 5 cm apart therefrom. Then, the bottle was plugged and allowed to stand in a thermostat chamber maintained at 25° C. for 4 hours. Then, the cage was taken up and the state of the larvae of case making clothes was checked.\nEach of p-dichlorobenzene, naphthalene and dl-camphor was used in the form of a granular reagent. […] One pack of \"Mothproofing Agent for Drawers\" supplied by Dainippon Jochugiku (corresponding to 12.5 liters) was used as the pyrethroid type chemicals. No chemical was used in Comparative Example 13."}, "rats [2]": {"tested_on": "rats", "settings": "cited from earlier work"}, "insects": {"tested_on": "insects", "assay": "insecticidal force and repellency, general statement", "type": "in vivo"}, "[3]": {"tested_on": "small fruit flies (drosophila)", "settings": "cited from earlier work"}, "[4]": {"settings": "cited from earlier work"}, "mice": {"tested_on": "mice", "settings": "cited from earlier work"}, "rats [5]": {"tested_on": "rats", "settings": "oral administration to rats; cited from earlier work"}, "[6]": {"settings": "cited from earlier work", "remark": "listed apart in the source"}, "salmonellae": {"tested_on": "salmonellae", "settings": "cited from earlier work"}, "[7]": {"tested_on": "larvae of varied carpet beetles", "assay": "test for controlling harmful insects to clothes, varied carpet beetle larvae (Table 2)", "type": "in vivo", "design": "key to Eating damage degree after 24 hours: A: no eating damage; B: eating damage was only a trace; C: intermediate between ranks B and D; D: large eating damage (damage in absence of insect-proofing agent)", "settings": "for Number of dead insects after 6 hours / Number of dead insects after 24 hours: 10 varied carpet beetle larvae, 500 ml bottle, 24° to 26° C.; for Eating damage degree after 24 hours: wool fabric, varied carpet beetle larvae", "protocol": "(§1) The solid insect-proofing agent was subjected to the test for controlling harmful insects to clothes.\n(§2) A glass bottle having a volume of 500 ml was charged with 10 harmful insects and one square wool fabric piece having a side of 3 cm, and one pellet of the solid insect-proofing agent was placed apart from the wool fabric piece. The bottle was tightly plugged and was allowed to stand in the dark place at a temperature of 24° to 26° C.\n(§3) For comparison, commercially available moth-proofing agents, p-dichlorobenzene and naphthalene (each was in the form of a flat disk-shaped pellet having a diameter of 21 mm), were similarly tested, and the test was carried out without using any moth-proofing agent.\n(§4) The results of the tests conducted on larvae of case making clothes moths having a body length of about 6 mm as the harmful insects (Example 6 and Comparative Examples 1 to 3) are shown in Table 1, and the results of the test conducted on larvae of varied carpet beetles having a body length of about 4 mm as harmful insects (Example 7 and Comparative Examples 4 to 6) are shown in Table 2."}, "[8]": {"tested_on": "larvae of case making clothes moths", "assay": "test for controlling harmful insects to clothes, case making clothes moth larvae (Table 1)", "type": "in vivo", "design": "key to Eating damage degree after 24 hours: A: no eating damage; B: eating damage was only a trace; C: intermediate between ranks B and D; D: large eating damage (damage in absence of insect-proofing agent)", "settings": "for Number of dead insects after 6 hours / Number of dead insects after 24 hours: 10 case making clothes moth larvae, 500 ml bottle, 24° to 26° C.; for Eating damage degree after 24 hours: wool fabric, case making clothes moth larvae", "protocol": "as §1, §2, §3, §4"}, "[9]": {"settings": "it is said; cited from earlier work"}}}
{"smiles": "CC1(C)[C@@H]2CC[C@@]1(C)C(=O)C2", "note": "(relative stereo) [dl-camphor]", "values": [{"measurement": "Number of Killed Insects", "setting": "[1]", "value": 0}]}
{"smiles": "C1OCOCO1", "note": "[trioxane, 1,3,5-trioxane]", "values": [{"measurement": "mutagenicity", "setting": "rats [2]", "value": "no mutagenicity"}, {"measurement": "insecticidal force", "setting": "insects; compared with p-dichlorobenzene", "value": "weaker than that of p-dichlorobenzene"}, {"measurement": "repellency to insects", "setting": "insects; in vivo", "value": "sufficient repellency to insects"}, {"measurement": "mutagenicity", "setting": "[3]", "value": "no mutagenicity"}, {"measurement": "stability in highly acidic aqueous solution", "setting": "[4]; highly acidic aqueous solution", "value": "hydrolyzed"}, {"measurement": "stability in neutral or alkaline aqueous solution", "setting": "[4]; neutral or alkaline aqueous solution", "value": "stable"}, {"measurement": "hydrolyzability", "setting": "[4]; normal state", "value": "very low"}, {"measurement": "stability in air", "setting": "[4]; normal temperature in air", "value": "very stable"}, {"measurement": "mutagenicity", "setting": "mice", "value": "no mutagenicity"}, {"measurement": "LD50", "setting": "rats [5]", "value": "8,500 mg/kg"}, {"measurement": "solubility in other various organic solvents", "setting": "[6]; organic solvents other than saturated hydrocarbons", "value": "highly soluble"}, {"measurement": "solubility in saturated hydrocarbons", "setting": "[6]; saturated hydrocarbons", "value": "poor"}, {"measurement": "solubility in water", "setting": "[6]", "value": "soluble in water"}, {"measurement": "mutagenicity", "setting": "salmonellae", "value": "no mutagenicity"}]}
{"smiles": "Clc1ccc(Cl)cc1", "note": "[p-dichlorobenzene]", "values": [{"measurement": "Number of dead insects after 6 hours", "setting": "[7]", "value": 3}, {"measurement": "Number of dead insects after 24 hours", "setting": "[7]", "value": 9}, {"measurement": "Eating damage degree after 24 hours", "setting": "[7]", "value": "A"}, {"measurement": "Number of Killed Insects", "setting": "[1]", "value": 2}, {"measurement": "Number of dead insects after 6 hours", "setting": "[8]", "value": 5}, {"measurement": "Number of dead insects after 24 hours", "setting": "[8]", "value": 10}, {"measurement": "Eating damage degree after 24 hours", "setting": "[8]", "value": "A"}, {"measurement": "health effects", "setting": "[9]", "value": "causes liver troubles, lung granulomata, cataract and dermatitis"}, {"measurement": "solubility in water", "setting": "[6]", "value": "hardly soluble or is insoluble in water"}]}
{"smiles": "CC12CCC(CC1=O)C2(C)C", "note": "(stereo not drawn) [camphor]", "values": [{"measurement": "solubility in water", "setting": "[6]", "value": "hardly soluble or is insoluble in water"}]}
{"smiles": "c1ccc2ccccc2c1", "note": "[naphthalene]", "values": [{"measurement": "Number of dead insects after 6 hours", "setting": "[7]", "value": 0}, {"measurement": "Number of dead insects after 24 hours", "setting": "[7]", "value": 0}, {"measurement": "Eating damage degree after 24 hours", "setting": "[7]", "value": "C"}, {"measurement": "Number of Killed Insects", "setting": "[1]", "value": 0}, {"measurement": "Number of dead insects after 6 hours", "setting": "[8]", "value": 0}, {"measurement": "Number of dead insects after 24 hours", "setting": "[8]", "value": 2}, {"measurement": "Eating damage degree after 24 hours", "setting": "[8]", "value": "B"}, {"measurement": "solubility in water", "setting": "[6]", "value": "hardly soluble or is insoluble in water"}]}
